ChEMBL document CHEMBL1154545, “Optimization of a series of 4,6-bis-anilino-1H-pyrrolo[2,3-d]pyrimidine inhibitors of IGF-1R: elimination of an acid-mediated decomposition pathway” (Bioorg Med Chem Lett, 2009)

System: Rattus norvegicus
Assay: Dose normalized AUC in rat at 9.8 mg/kg, po
Format: ADME, organism-based
Parameters: dose 9.8 mg/kg, route oral
Settings: in vivo

SMILES | AUC [ng·h/mL/mg/kg]
COc1cc(N2CCN(C(C)C)CC2)ccc1Nc1nc(Nc2cccc(F)c2C(=O)O)c2cc[nH]c2n1 [GSK-1819799A] | 0
COc1cc(N2CCN(C(C)C)CC2)ccc1Nc1nc2[nH]ccc2c2nc3cccc(F)c3c(=O)n12 | 18

System: not listed separately
Assay: Bioavailability in rat at 9.2 mg/kg, po
Format: ADME, organism-based
Settings: in vivo

SMILES | bioavailability [%]
COc1cc(N2CCN(C(C)C)CC2)ccc1Nc1nc(Nc2cccc(F)c2C(N)=O)c2cc[nH]c2n1 | 65

System: not listed separately
Assay: Clearance in rat at 2.2 mg/kg, iv or 9.8 mg/kg, po
Format: ADME, organism-based
Settings: in vivo

SMILES | clearance [mL/min/kg]
COc1cc(N2CCN(C(C)C)CC2)ccc1Nc1nc(Nc2cccc(F)c2C(=O)O)c2cc[nH]c2n1 [GSK-1819799A] | > 200
COc1cc(N2CCN(C(C)C)CC2)ccc1Nc1nc2[nH]ccc2c2nc3cccc(F)c3c(=O)n12 | 47

Target: Phosphatidylinositol 4,5-bisphosphate 3-kinase catalytic subunit alpha isoform (Homo sapiens, UniProt P42336)
Assay: Inhibition of PI3K
Settings: not given

SMILES | IC50 [nM]
COc1cc2c(cc1Nc1nc(Nc3cccc4c3C(=O)NC4)c3cc[nH]c3n1)N(C(=O)CN(C)C)CC2 | 0.8

Target: T1, Insulin-like growth factor 1 receptor (Homo sapiens, UniProt P08069)
Settings: not given

SMILES | IC50 [nM]
COc1cc2c(cc1Nc1nc(Nc3cccc(F)c3C(N)=O)c3cc[nH]c3n1)N(C(=O)CN(C)C)CC2 | 54
COc1cc(N2CCN(C(C)C)CC2)ccc1Nc1nc(Nc2cccc3c2NCC3)c2cc[nH]c2n1 | 1690
COc1cc(N2CCN(C(C)C)CC2)ccc1Nc1nc(Nc2cccc(F)c2C(N)=O)c2cc[nH]c2n1 | 117
COc1cc(N2CCN(C(C)C)CC2)ccc1Nc1nc(N2CCc3ccccc32)c2cc[nH]c2n1 | 1770
COc1cc(N2CCN(C(C)C)CC2)ccc1Nc1nc(Nc2ccccc2OC)c2cc[nH]c2n1 | 982
COc1cc2c(cc1Nc1nc(N3CCc4ccccc43)c3cc[nH]c3n1)N(C(=O)CN(C)C)CCC2 | 15
COc1cc(N2CCN(C(C)C)CC2)ccc1Nc1nc(Nc2ccccc2-n2cccn2)c2cc[nH]c2n1 | 654
COc1cc2c(cc1Nc1nc(Nc3ccsc3C(N)=O)c3cc[nH]c3n1)N(C(=O)CN(C)C)CCC2(C)C [GSK-2163632A] | < 2
COc1cc2c(cc1Nc1nc(Nc3cccnc3C(N)=O)c3cc[nH]c3n1)N(C(=O)CN(C)C)CC2 | 38
COc1cc(N2CCN(C(C)C)CC2)ccc1Nc1nc2[nH]ccc2c2nc3cccc(F)c3c(=O)n12 | 30000
COc1cc(N2CCN(CC(C)C)CC2)ccc1Nc1nc(Nc2ccccc2C#N)c2cc[nH]c2n1 | 2740
COc1cc2c(cc1Nc1nc(Nc3ccsc3C(N)=O)c3cc[nH]c3n1)N(C(=O)CN(C)C)CCC2 [GSK-2110236A] | 6
COc1cc(N2CCC(N3CCN(S(C)(=O)=O)CC3)CC2)ccc1Nc1nc(Nc2ccsc2C(N)=O)c2cc[nH]c2n1 | 92
COc1cc(N2CCN(C(C)C)CC2)ccc1Nc1nc(Nc2ccc3ncccc3c2)c2cc[nH]c2n1 | 773
COc1cc2c(cc1Nc1nc(Nc3cccc4c3C(=O)NC4)c3cc[nH]c3n1)N(C(=O)CN(C)C)CC2 | 16
COc1cc(N2CCN(C(C)C)CC2)ccc1Nc1nc(-n2[nH]c(=O)c3ccccc32)c2cc[nH]c2n1 | 546
COc1cc2c(cc1Nc1nc(Nc3ccoc3C(N)=O)c3cc[nH]c3n1)N(C(=O)CN(C)C)CCC2 | 9
CNC(=O)c1cscc1Nc1nc(Nc2cc3c(cc2OC)CCN3C(=O)CN(C)C)nc2[nH]ccc12 | 25
COc1cc2c(cc1Nc1nc(Nc3cccnc3C(N)=O)c3cc[nH]c3n1)N(C(=O)CN(C)C)CCC2 | 18
COc1cc(N2CCN(C(C)C)CC2)ccc1Nc1nc(Nc2cccc3ncccc23)c2cc[nH]c2n1 [GSK-1511931A] | 2530
COc1cc2c(cc1Nc1nc(N3CCc4ccccc43)c3cc[nH]c3n1)N(C(=O)CN(C)C)CC2 [GSK-2186269A] | 160
COc1cc(N2CCN(C(C)C)CC2)ccc1Nc1nc(Nc2ccsc2C(N)=O)c2cc[nH]c2n1 | 106
CCCN1CCC(c2ccc(Nc3nc(Nc4ccsc4C(N)=O)c4cc[nH]c4n3)c(OC)c2)CC1 | 52

System: Rattus norvegicus
Assay: Dose normalized AUC in rat at 9.2 mg/kg, po
Format: ADME, organism-based
Parameters: dose 9.2 mg/kg, route oral
Settings: in vivo

SMILES | AUC [ng·h/mL/mg/kg]
COc1cc(N2CCN(C(C)C)CC2)ccc1Nc1nc(Nc2cccc(F)c2C(N)=O)c2cc[nH]c2n1 | 156

System: not listed separately
Assay: Bioavailability in rat at 9.8 mg/kg, po
Format: ADME, organism-based
Settings: in vivo

SMILES | bioavailability [%]
COc1cc(N2CCN(C(C)C)CC2)ccc1Nc1nc(Nc2cccc(F)c2C(=O)O)c2cc[nH]c2n1 [GSK-1819799A] | 0
COc1cc(N2CCN(C(C)C)CC2)ccc1Nc1nc2[nH]ccc2c2nc3cccc(F)c3c(=O)n12 | 81

Target: RAC-alpha serine/threonine-protein kinase (Homo sapiens, UniProt P31749)
Assay: Inhibition of AKT
Settings: not given

SMILES | IC50 [nM]
COc1cc2c(cc1Nc1nc(Nc3cccc4c3C(=O)NC4)c3cc[nH]c3n1)N(C(=O)CN(C)C)CC2 | 2.5

System: not listed separately
Assay: Clearance in rat at 2.1 mg/kg, iv or 9.2 mg/kg, po
Format: ADME, organism-based
Settings: in vivo

SMILES | clearance [mL/min/kg]
COc1cc(N2CCN(C(C)C)CC2)ccc1Nc1nc(Nc2cccc(F)c2C(N)=O)c2cc[nH]c2n1 | 51

Target: T1, Insulin-like growth factor 1 receptor
Settings: not given
Remark: another data set of the same source

SMILES | IC50 [nM]
COc1cc2c(cc1Nc1nc(Nc3cccc(F)c3C(N)=O)c3cc[nH]c3n1)N(C(=O)CN(C)C)CC2 | 1
COc1cc(N2CCN(C(C)C)CC2)ccc1Nc1nc(Nc2cccc3c2NCC3)c2cc[nH]c2n1 | 400
COc1cc(N2CCN(C(C)C)CC2)ccc1Nc1nc(Nc2cccc(F)c2C(N)=O)c2cc[nH]c2n1 | 2
COc1cc(N2CCN(C(C)C)CC2)ccc1Nc1nc(N2CCc3ccccc32)c2cc[nH]c2n1 | 10
COc1cc(N2CCN(C(C)C)CC2)ccc1Nc1nc(Nc2ccccc2OC)c2cc[nH]c2n1 | 32
COc1cc2c(cc1Nc1nc(N3CCc4ccccc43)c3cc[nH]c3n1)N(C(=O)CN(C)C)CCC2 | 0.5
COc1cc(N2CCN(C(C)C)CC2)ccc1Nc1nc(Nc2ccc(F)c(F)c2C(N)=O)c2cc[nH]c2n1 | 1.3
COc1cc(N2CCN(C(C)C)CC2)ccc1Nc1nc(Nc2cc(F)cc(F)c2C(N)=O)c2cc[nH]c2n1 | 0.8
COc1cc(N2CCN(C(C)C)CC2)ccc1Nc1nc(Nc2ccccc2-n2cccn2)c2cc[nH]c2n1 | 25
COc1cc2c(cc1Nc1nc(Nc3ccsc3C(N)=O)c3cc[nH]c3n1)N(C(=O)CN(C)C)CCC2(C)C [GSK-2163632A] | 0.2
COc1cc2c(cc1Nc1nc(Nc3cccnc3C(N)=O)c3cc[nH]c3n1)N(C(=O)CN(C)C)CC2 | 0.7
COc1cc(N2CCN(C(C)C)CC2)ccc1Nc1nc2[nH]ccc2c2nc3cccc(F)c3c(=O)n12 | 7.9
COc1cc(N2CCN(CC(C)C)CC2)ccc1Nc1nc(Nc2ccccc2C#N)c2cc[nH]c2n1 | 79
COc1cc2c(cc1Nc1nc(Nc3ccsc3C(N)=O)c3cc[nH]c3n1)N(C(=O)CN(C)C)CCC2 [GSK-2110236A] | < 0.2
COc1cc(N2CCC(N3CCN(S(C)(=O)=O)CC3)CC2)ccc1Nc1nc(Nc2ccsc2C(N)=O)c2cc[nH]c2n1 | 5
COc1cc(N2CCN(C(C)C)CC2)ccc1Nc1nc(Nc2ccc3ncccc3c2)c2cc[nH]c2n1 | 13
COc1cc2c(cc1Nc1nc(Nc3cccc4c3C(=O)NC4)c3cc[nH]c3n1)N(C(=O)CN(C)C)CC2 | 0.8
COc1cc(N2CCN(C(C)C)CC2)ccc1Nc1nc(-n2[nH]c(=O)c3ccccc32)c2cc[nH]c2n1 | 6
COc1cc2c(cc1Nc1nc(Nc3ccoc3C(N)=O)c3cc[nH]c3n1)N(C(=O)CN(C)C)CCC2 | 0.3
CNC(=O)c1cscc1Nc1nc(Nc2cc3c(cc2OC)CCN3C(=O)CN(C)C)nc2[nH]ccc12 | 2
COc1cc(N2CCN(C(C)C)CC2)ccc1Nc1nc(Nc2cc(F)ccc2C(N)=O)c2cc[nH]c2n1 | 0.7
COc1cc2c(cc1Nc1nc(Nc3cccnc3C(N)=O)c3cc[nH]c3n1)N(C(=O)CN(C)C)CCC2 | 0.5
COc1cc(N2CCN(C(C)C)CC2)ccc1Nc1nc(Nc2ccc(F)cc2C(N)=O)c2cc[nH]c2n1 [GSK-1220512A] | 0.9
COc1cc(N2CCN(C(C)C)CC2)ccc1Nc1nc(Nc2cccc3ncccc23)c2cc[nH]c2n1 [GSK-1511931A] | 250
COc1cc2c(cc1Nc1nc(N3CCc4ccccc43)c3cc[nH]c3n1)N(C(=O)CN(C)C)CC2 [GSK-2186269A] | 0.8
COc1cc(N2CCN(C(C)C)CC2)ccc1Nc1nc(Nc2ccsc2C(N)=O)c2cc[nH]c2n1 | 1.6
CCCN1CCC(c2ccc(Nc3nc(Nc4ccsc4C(N)=O)c4cc[nH]c4n3)c(OC)c2)CC1 | 1.3

Target: ALK tyrosine kinase receptor (Homo sapiens, UniProt Q9UM73)
Assay: Inhibition of ALK
Settings: not given

SMILES | IC50 [nM]
COc1cc2c(cc1Nc1nc(Nc3ccsc3C(N)=O)c3cc[nH]c3n1)N(C(=O)CN(C)C)CC2 | 0.4

System: not listed separately
Assay: Chemical stability assessed as half life in 0.1 N HCl by LC-MS
Format: physicochemical
Settings: not given

SMILES | half-life [days]
COc1cc2c(cc1Nc1nc(Nc3cccc(F)c3C(N)=O)c3cc[nH]c3n1)N(C(=O)CN(C)C)CC2 | 0.0833
COc1cc(N2CCN(C(C)C)CC2)ccc1Nc1nc(Nc2cccc(F)c2C(N)=O)c2cc[nH]c2n1 | 0.708
COc1cc2c(cc1Nc1nc(Nc3ccsc3C(N)=O)c3cc[nH]c3n1)N(C(=O)CN(C)C)CC2 | 10.4
COc1cc2c(cc1Nc1nc(N3CCc4ccccc43)c3cc[nH]c3n1)N(C(=O)CN(C)C)CCC2 | > 41.7
COc1cc(N2CCN(C(C)C)CC2)ccc1Nc1nc(Nc2ccc(F)c(F)c2C(N)=O)c2cc[nH]c2n1 | 0.708
COc1cc(N2CCN(C(C)C)CC2)ccc1Nc1nc(Nc2cc(F)cc(F)c2C(N)=O)c2cc[nH]c2n1 | 1.62
COc1cc2c(cc1Nc1nc(Nc3ccsc3C(N)=O)c3cc[nH]c3n1)N(C(=O)CN(C)C)CCC2(C)C [GSK-2163632A] | 30
COc1cc2c(cc1Nc1nc(Nc3cccnc3C(N)=O)c3cc[nH]c3n1)N(C(=O)CN(C)C)CC2 | 0.625
COc1cc2c(cc1Nc1nc(Nc3ccsc3C(N)=O)c3cc[nH]c3n1)N(C(=O)CN(C)C)CCC2 [GSK-2110236A] | 34.6
COc1cc2c(cc1Nc1nc(Nc3ccoc3C(N)=O)c3cc[nH]c3n1)N(C(=O)CN(C)C)CC2 | > 41.7
COc1cc(N2CCC(N3CCN(S(C)(=O)=O)CC3)CC2)ccc1Nc1nc(Nc2ccsc2C(N)=O)c2cc[nH]c2n1 | 17.9
COc1cc2c(cc1Nc1nc(Nc3cccc4c3C(=O)NC4)c3cc[nH]c3n1)N(C(=O)CN(C)C)CC2 | > 41.7
COc1cc2c(cc1Nc1nc(Nc3ccoc3C(N)=O)c3cc[nH]c3n1)N(C(=O)CN(C)C)CCC2 | > 41.7
CNC(=O)c1cscc1Nc1nc(Nc2cc3c(cc2OC)CCN3C(=O)CN(C)C)nc2[nH]ccc12 | 16.2
COc1cc(N2CCN(C(C)C)CC2)ccc1Nc1nc(Nc2cc(F)ccc2C(N)=O)c2cc[nH]c2n1 | 0.167
COc1cc2c(cc1Nc1nc(Nc3cccnc3C(N)=O)c3cc[nH]c3n1)N(C(=O)CN(C)C)CCC2 | 1.12
COc1cc(N2CCN(C(C)C)CC2)ccc1Nc1nc(Nc2ccc(F)cc2C(N)=O)c2cc[nH]c2n1 [GSK-1220512A] | 0.0833
COc1cc2c(cc1Nc1nc(N3CCc4ccccc43)c3cc[nH]c3n1)N(C(=O)CN(C)C)CC2 [GSK-2186269A] | > 41.7
COc1cc(N2CCN(C(C)C)CC2)ccc1Nc1nc(Nc2ccsc2C(N)=O)c2cc[nH]c2n1 | > 41.7
CCCN1CCC(c2ccc(Nc3nc(Nc4ccsc4C(N)=O)c4cc[nH]c4n3)c(OC)c2)CC1 | 38.3
